Measurements published in paper PMC5862592, “CDK8/19 inhibition induces premature G1/S transition and ATR-dependent cell death in prostate cancer cells” (Oncotarget, 2018).
Read-outs that look alike come from different tables or passages of the source.

Columns and labels:
Experiment in all cases: biochemical
Set-up in all cases: KINOMEscan active site-directed competition binding assay (DiscoveRx), 456 kinases, per cent of control at 300 nM
Details in all cases: read-out: Percent of Control (%)
ABL2 = ABL2 (Homo sapiens, UniProt P42684)
ABL2, sequence (P42684 whole entry): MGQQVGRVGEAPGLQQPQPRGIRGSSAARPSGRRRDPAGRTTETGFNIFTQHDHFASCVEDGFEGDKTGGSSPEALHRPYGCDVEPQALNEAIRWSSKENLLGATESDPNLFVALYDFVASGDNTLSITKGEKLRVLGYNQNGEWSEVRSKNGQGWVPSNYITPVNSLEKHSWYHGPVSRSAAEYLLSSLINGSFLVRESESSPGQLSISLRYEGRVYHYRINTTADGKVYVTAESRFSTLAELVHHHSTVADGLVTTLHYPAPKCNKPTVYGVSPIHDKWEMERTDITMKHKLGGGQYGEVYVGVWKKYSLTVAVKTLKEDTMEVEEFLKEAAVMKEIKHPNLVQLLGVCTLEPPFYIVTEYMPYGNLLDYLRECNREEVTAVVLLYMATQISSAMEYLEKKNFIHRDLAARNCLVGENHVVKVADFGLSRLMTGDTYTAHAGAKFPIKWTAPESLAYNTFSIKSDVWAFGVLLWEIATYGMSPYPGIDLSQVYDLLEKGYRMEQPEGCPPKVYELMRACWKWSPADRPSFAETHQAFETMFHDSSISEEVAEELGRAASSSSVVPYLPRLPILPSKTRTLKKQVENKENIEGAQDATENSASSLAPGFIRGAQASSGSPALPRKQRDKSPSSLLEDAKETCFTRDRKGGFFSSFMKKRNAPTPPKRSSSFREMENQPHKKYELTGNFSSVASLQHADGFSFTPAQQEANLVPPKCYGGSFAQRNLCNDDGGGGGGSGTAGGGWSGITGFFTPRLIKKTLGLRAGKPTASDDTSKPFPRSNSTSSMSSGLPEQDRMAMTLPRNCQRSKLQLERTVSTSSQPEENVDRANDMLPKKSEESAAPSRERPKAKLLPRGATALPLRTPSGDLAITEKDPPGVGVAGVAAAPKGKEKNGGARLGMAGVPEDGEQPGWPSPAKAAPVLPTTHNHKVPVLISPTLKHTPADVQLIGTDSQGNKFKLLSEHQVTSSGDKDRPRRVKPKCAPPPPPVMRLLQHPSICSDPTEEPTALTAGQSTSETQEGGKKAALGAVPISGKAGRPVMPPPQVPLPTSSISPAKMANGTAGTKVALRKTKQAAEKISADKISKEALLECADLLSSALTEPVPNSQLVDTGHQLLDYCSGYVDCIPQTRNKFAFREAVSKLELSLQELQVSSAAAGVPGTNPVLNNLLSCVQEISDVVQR
Summary of the method: (§1)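 Each compound is tested at 300 nmol/L against a panel of 456 kinases. Interaction is quantified by competition for the kinase active site.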

ALK(C1156Y) = ALK(C1156Y) (Homo sapiens, UniProt Q9UM73, C1156Y)
Summary of the method: as §1

CSNK2A2 = CSNK2A2 (Homo sapiens, UniProt P19784)
Summary of the method: as §1

DDR1 = DDR1 (Homo sapiens, UniProt Q08345)
DDR1, sequence (Q08345 whole entry): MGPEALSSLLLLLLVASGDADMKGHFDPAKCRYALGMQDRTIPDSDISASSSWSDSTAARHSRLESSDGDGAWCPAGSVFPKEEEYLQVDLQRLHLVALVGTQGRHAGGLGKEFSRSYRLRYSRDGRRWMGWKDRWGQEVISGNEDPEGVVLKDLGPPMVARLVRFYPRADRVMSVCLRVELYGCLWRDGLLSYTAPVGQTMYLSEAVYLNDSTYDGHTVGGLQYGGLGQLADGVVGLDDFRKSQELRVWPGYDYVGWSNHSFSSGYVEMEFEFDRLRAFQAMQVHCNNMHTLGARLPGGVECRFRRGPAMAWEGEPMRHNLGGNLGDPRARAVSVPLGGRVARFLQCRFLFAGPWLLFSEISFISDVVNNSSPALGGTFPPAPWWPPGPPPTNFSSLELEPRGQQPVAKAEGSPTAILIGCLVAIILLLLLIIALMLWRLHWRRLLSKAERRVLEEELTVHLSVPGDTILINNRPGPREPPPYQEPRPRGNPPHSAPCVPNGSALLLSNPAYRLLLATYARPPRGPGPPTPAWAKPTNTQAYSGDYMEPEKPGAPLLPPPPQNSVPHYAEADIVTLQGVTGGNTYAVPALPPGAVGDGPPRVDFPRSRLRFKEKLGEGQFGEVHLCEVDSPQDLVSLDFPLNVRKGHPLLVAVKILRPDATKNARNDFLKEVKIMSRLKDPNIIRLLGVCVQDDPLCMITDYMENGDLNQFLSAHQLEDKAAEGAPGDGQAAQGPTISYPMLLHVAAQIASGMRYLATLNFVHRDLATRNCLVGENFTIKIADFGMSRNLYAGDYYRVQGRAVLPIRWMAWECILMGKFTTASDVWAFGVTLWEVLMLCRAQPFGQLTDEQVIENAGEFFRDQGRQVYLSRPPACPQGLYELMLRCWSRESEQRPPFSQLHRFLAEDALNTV
Summary of the method: as §1

ERBB2 = ERBB2 (Homo sapiens, UniProt P04626)
Summary of the method: as §1

GSK3A = GSK3A (Homo sapiens, UniProt P49840)
Summary of the method: as §1

MAP4K4 = MAP4K4 (Homo sapiens, UniProt O95819)
MAP4K4, sequence (O95819 whole entry): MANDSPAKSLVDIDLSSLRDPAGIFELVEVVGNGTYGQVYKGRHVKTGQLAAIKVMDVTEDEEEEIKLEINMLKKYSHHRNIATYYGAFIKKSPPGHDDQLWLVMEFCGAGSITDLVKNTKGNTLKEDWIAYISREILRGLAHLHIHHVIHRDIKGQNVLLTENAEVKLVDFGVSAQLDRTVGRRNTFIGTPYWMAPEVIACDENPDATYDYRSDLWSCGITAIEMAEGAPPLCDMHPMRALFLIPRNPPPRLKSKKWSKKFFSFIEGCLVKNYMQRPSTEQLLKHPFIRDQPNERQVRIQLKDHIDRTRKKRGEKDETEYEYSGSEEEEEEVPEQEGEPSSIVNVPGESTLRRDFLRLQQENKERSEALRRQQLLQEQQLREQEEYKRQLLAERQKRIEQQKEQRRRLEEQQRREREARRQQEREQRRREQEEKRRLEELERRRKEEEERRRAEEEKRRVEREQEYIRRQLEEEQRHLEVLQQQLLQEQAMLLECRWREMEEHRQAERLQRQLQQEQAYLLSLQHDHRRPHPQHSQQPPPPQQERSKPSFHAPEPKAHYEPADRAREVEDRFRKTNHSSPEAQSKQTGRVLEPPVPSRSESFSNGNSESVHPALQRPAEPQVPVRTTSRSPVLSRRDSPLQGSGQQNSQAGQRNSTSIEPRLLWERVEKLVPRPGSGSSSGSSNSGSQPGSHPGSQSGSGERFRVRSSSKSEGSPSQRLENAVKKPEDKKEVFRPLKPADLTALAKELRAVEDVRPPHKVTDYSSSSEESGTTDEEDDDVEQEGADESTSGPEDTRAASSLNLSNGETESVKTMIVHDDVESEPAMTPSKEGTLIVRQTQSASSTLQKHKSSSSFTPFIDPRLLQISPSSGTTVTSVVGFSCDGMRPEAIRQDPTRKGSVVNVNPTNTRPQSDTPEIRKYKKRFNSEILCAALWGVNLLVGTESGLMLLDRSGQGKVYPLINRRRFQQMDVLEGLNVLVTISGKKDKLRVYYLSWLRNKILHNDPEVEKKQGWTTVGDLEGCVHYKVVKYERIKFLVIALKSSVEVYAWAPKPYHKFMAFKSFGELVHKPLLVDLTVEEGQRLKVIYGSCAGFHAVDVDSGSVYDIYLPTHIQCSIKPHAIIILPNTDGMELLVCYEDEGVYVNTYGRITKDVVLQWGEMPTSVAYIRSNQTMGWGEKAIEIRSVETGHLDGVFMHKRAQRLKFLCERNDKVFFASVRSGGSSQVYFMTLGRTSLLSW
Summary of the method: as §1

MLCK = biological target: T1, MLCK (Homo sapiens, UniProt Q32MK0)
T1 construct: gene MYLK3
Summary of the method: as §1

MST1 = biological target: T2, MST1 (Homo sapiens, UniProt Q13043)
T2 construct: gene STK4
Summary of the method: as §1

PFCDPK1(P.falciparum) = biological target: T3, PFCDPK1(P.falciparum) (Plasmodium falciparum, UniProt P62344)
T3 construct: gene CDPK1
Summary of the method: as §1

PIK4CB = biological target: T4, PIK4CB (Homo sapiens, UniProt Q9UBF8)
T4 construct: gene PI4KB
T4 sequence (Q9UBF8 whole entry): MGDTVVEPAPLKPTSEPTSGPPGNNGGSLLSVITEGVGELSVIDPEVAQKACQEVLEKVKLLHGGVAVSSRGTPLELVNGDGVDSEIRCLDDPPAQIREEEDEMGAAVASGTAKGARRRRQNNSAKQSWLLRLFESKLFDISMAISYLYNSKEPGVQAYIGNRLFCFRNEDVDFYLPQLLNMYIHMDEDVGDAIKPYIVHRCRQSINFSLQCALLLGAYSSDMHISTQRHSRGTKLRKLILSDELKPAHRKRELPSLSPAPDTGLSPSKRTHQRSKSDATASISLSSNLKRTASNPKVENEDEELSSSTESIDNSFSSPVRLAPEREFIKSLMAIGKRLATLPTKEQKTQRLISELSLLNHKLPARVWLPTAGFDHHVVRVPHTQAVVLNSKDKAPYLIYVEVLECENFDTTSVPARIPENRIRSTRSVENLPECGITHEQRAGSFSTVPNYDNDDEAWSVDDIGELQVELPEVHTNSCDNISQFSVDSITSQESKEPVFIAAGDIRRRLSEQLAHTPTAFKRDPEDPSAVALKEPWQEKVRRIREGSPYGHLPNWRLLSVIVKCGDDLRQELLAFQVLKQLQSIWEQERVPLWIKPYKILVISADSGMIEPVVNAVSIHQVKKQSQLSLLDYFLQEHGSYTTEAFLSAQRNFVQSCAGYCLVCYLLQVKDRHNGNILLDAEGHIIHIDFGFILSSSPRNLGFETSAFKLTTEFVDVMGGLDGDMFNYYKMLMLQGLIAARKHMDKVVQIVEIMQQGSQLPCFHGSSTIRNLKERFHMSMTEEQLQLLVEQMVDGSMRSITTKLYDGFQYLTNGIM
Summary of the method: as §1

PKAC-alpha = biological target: T5, PKAC-alpha (Homo sapiens, UniProt P17612)
T5 construct: gene PRKACA
Summary of the method: as §1

PRKX = PRKX (Homo sapiens, UniProt P51817)
Summary of the method: as §1

[1] = biological target: T6, RPS6KA4(Kin.Dom.1-N-terminal) (Homo sapiens, UniProt O75676)
T6 construct: Kin.Dom.1-N-terminal
Summary of the method: as §1

[2] = biological target: T7, RSK1(Kin.Dom.1-N-terminal) (Homo sapiens, UniProt Q15418)
T7 construct: gene RPS6KA1; Kin.Dom.1-N-terminal
Summary of the method: as §1

[3] = biological target: T8, RSK1(Kin.Dom.2-C-terminal) (Homo sapiens, UniProt Q15418)
T8 construct: gene RPS6KA1; Kin.Dom.2-C-terminal
Summary of the method: as §1

TAK1 = biological target: T9, TAK1 (Homo sapiens, UniProt O43318)
T9 construct: gene MAP3K7
Summary of the method: as §1

TLK1 = TLK1 (Homo sapiens, UniProt Q9UKI8)
TLK1, sequence (Q9UKI8 whole entry): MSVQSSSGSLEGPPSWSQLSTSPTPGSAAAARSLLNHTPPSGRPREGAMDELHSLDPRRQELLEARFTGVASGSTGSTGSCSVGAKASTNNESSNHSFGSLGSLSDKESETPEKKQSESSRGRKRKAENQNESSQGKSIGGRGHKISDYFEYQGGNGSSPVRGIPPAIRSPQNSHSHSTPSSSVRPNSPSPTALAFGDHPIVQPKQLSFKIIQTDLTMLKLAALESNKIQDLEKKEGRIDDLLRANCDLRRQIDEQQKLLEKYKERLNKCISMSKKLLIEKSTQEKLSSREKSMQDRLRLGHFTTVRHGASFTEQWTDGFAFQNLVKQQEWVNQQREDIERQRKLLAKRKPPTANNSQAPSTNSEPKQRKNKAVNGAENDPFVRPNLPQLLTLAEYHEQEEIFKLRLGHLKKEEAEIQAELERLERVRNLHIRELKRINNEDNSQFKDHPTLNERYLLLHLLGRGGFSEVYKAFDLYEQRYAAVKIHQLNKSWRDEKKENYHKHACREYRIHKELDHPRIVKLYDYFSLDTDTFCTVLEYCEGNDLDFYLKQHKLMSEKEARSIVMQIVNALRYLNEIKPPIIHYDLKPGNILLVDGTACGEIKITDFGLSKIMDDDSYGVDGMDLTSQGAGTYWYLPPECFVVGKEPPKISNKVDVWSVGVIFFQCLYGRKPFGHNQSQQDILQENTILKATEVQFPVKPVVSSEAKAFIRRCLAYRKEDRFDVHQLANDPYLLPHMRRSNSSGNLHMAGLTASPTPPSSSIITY
Summary of the method: as §1

TYRO3 = TYRO3 (Homo sapiens, UniProt Q06418)
Summary of the method: as §1

VRK2 = VRK2 (Homo sapiens, UniProt Q86Y07)
Summary of the method: as §1

p38-alpha = biological target: T10, p38-alpha (Homo sapiens, UniProt Q16539)
T10 construct: gene MAPK14
Summary of the method: as §1

With O=C(/C=C/c1cnccc1-c1ccc(F)cc1)Nc1ccc(CCc2nnco2)cc1 [T-418, (2E)-3-(4-(4-fluorophenyl)pyridin-3-yl)-N-(4-(2-(1,3,4-oxadiazol-2-yl)ethyl)phenyl)acrylamide] the remaining binding at 0.3 µM (ABL2; sheet T-418) was 90%, the remaining binding at 0.3 µM (ALK(C1156Y); sheet T-418) was 91% and the remaining binding at 0.3 µM (CSNK2A2; sheet T-418) was 100%. It also gave a remaining binding at 0.3 µM (DDR1; sheet T-418) of 100%, a remaining binding at 0.3 µM (ERBB2; sheet T-418) of 52% and a remaining binding at 0.3 µM (GSK3A; sheet T-418) of 64%. The remaining binding at 0.3 µM (MAP4K4; sheet T-418) was 89%, the remaining binding at 0.3 µM (MLCK; sheet T-418) was 88% and the remaining binding at 0.3 µM (MST1; sheet T-418) was 89%. It also gave a remaining binding at 0.3 µM (PFCDPK1(P.falciparum); sheet T-418) of 100%, a remaining binding at 0.3 µM (PIK4CB; sheet T-418) of 100% and a remaining binding at 0.3 µM (PKAC-alpha; sheet T-418) of 66%. It also gave a remaining binding at 0.3 µM (PRKX; sheet T-418) of 100%, a remaining binding at 0.3 µM ([1]; sheet T-418) of 90% and a remaining binding at 0.3 µM ([2]; sheet T-418) of 78%. The remaining binding at 0.3 µM ([3]; sheet T-418) was 100%, the remaining binding at 0.3 µM (TAK1; sheet T-418) was 100% and the remaining binding at 0.3 µM (TLK1; sheet T-418) was 100%. The remaining binding at 0.3 µM (TYRO3; sheet T-418) was 82%, the remaining binding at 0.3 µM (VRK2; sheet T-418) was 100% and the remaining binding at 0.3 µM (p38-alpha; sheet T-418) was 100%.

Cc1ncccc1Oc1sc(C(N)=O)c2c1-c1c(cnn1C)CC2 [T-474, 1-methyl-8-((2-methylpyridin-3-yl)oxy)-4,5-dihydro-1H-thieno[3,4-g]indazole-6-carboxamide] gave a remaining binding at 0.3 µM (ABL2) of 100%, a remaining binding at 0.3 µM (ALK(C1156Y)) of 98% and a remaining binding at 0.3 µM (CSNK2A2) of 100%. The remaining binding at 0.3 µM (DDR1) was 100%, the remaining binding at 0.3 µM (ERBB2) was 47% and the remaining binding at 0.3 µM (GSK3A) was 70%. It also gave a remaining binding at 0.3 µM (MAP4K4) of 83%, a remaining binding at 0.3 µM (MLCK) of 100% and a remaining binding at 0.3 µM (MST1) of 100%. It also gave a remaining binding at 0.3 µM (PFCDPK1(P.falciparum)) of 100%, a remaining binding at 0.3 µM (PIK4CB) of 100% and a remaining binding at 0.3 µM (PKAC-alpha) of 90%. The remaining binding at 0.3 µM (PRKX) was 100%, the remaining binding at 0.3 µM [1] was 100% and the remaining binding at 0.3 µM [2] was 95%. The remaining binding at 0.3 µM [3] was 100%, the remaining binding at 0.3 µM (TAK1) was 100% and the remaining binding at 0.3 µM (TLK1) was 100%. For the same compound, the remaining binding at 0.3 µM (TYRO3) was 95%, the remaining binding at 0.3 µM (VRK2) was 100% and the remaining binding at 0.3 µM (p38-alpha) was 99%.
